Data taken from publication PMC8537048, “Characterization of Fungal FAD-Dependent AA3_2 Glucose Oxidoreductases from Hitherto Unexplored Phylogenetic Clades” (Journal of Fungi, 2021).

Tests used:
TvGDHII = target: T1, TvGDHII (Trichoderma virens, UniProt G9N1C2); test: spectrophotometric steady-state kinetics, reduction of […],4-benzoquinone ([…] nm); format: biochemical; conditions: 0.5 mM 1,4-benzoquinone fixed, pH 6.5, 30 °C
T1 construct: gene TRIVIDRAFT_46709; monomer; ~65 kDa deglycosylated; non-covalent FAD
T1 sequence (G9N1C2 entry or part of it): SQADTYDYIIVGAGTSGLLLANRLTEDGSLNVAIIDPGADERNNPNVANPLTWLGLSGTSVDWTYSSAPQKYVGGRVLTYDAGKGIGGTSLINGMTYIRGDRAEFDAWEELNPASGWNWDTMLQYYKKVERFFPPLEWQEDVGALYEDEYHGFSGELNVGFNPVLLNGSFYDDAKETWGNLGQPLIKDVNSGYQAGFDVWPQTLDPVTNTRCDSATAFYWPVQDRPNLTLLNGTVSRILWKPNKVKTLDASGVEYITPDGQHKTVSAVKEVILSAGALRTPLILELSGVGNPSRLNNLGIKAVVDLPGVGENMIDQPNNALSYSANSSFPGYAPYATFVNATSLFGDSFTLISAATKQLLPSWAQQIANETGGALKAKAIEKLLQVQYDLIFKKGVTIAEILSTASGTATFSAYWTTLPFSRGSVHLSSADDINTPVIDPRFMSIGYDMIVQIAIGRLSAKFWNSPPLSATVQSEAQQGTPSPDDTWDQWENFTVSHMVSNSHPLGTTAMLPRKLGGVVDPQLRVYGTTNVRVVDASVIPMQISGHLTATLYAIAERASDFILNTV

RsGDHIII = target: T2, RsGDHIII (Rhizoctonia solani, UniProt A0A0B7G104); test: as above; format: biochemical; conditions: 0.5 mM 1,4-benzoquinone fixed, pH 6.5, 30 °C
T2 construct: gene RSOLAG1IB_10481; monomer; non-covalent FAD
T2 sequence (A0A0B7G104 20-601): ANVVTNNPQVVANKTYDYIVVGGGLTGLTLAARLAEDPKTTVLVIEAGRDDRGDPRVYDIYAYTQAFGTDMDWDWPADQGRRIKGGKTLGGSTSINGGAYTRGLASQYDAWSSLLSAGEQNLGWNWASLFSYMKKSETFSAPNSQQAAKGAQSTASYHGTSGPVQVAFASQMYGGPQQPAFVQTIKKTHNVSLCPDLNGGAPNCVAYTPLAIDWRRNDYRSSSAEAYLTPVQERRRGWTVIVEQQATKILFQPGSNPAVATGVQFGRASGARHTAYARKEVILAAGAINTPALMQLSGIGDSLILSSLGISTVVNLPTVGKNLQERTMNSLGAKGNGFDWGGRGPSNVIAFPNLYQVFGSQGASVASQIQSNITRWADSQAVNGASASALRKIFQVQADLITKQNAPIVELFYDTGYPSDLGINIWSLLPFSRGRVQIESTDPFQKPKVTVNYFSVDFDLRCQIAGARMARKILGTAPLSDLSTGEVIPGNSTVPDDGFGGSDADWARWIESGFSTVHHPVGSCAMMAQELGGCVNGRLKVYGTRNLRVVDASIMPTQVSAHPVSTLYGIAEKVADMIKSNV

[1] = target: Aureobasidium subglaciale glucose oxidase (AsGOxII) (Aureobasidium subglaciale); test: SEC-MALS; HPLC-SEC-MALS of the purified, native glycosylated enzyme; Superdex 200 10/300 GL, PBS pH 7.4 with 200 mM NaCl, 0.75 mL/min, 25 °C; 80 μg of protein loaded per run; oligomeric state judged against the mass of the deglycosylated subunit by SDS-PAGE

OC[C@H]1OC(O)[C@H](O)[C@@H](O)[C@H]1O (stereo partly drawn) [D-galactose]
apparent Km (TvGDHII): 42.6 ± 2.4 mM

OC[C@H]1O[C@H](O[C@H]2[C@H](O)[C@@H](O)C(O)O[C@@H]2CO)[C@H](O)[C@@H](O)[C@@H]1O (stereo partly drawn) [maltose]
apparent Km (RsGDHIII): 159.6 ± 9.4 mM

Aureobasidium subglaciale glucose oxidase (AsGOxII) (enzyme)
stoichiometry N [1]: 2
